Legend:
Assay in all cases: SelectScreen ZLYTE
Assay type in all cases: biochemical
MAPK3 (ERK1) = molecular target: T1, MAPK3 (ERK1) (Homo sapiens, UniProt P27361); conditions: ATP Km, read-out: Percentage of inhibition
T1 construct: purchased Life Technologies
Outline: (§1)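 The test compound was screened at a single concentration of 1 μM across a broad commercial kinase selectivity panel, and activity against each kinase is given as percent inhibition.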

AURKB (Aurora B) = molecular target: T2, AURKB (Aurora B) (Homo sapiens, UniProt Q96GD4); conditions: ATP Km, read-out: Percentage of inhibition
T2 construct: purchased Life Technologies
Outline: as §1

ABL1 F317L = molecular target: T3, ABL1 F317L (Homo sapiens, UniProt P00519, F317L); conditions: ATP Km, read-out: Percentage of inhibition
T3 construct: purchased Life Technologies (SelectScreen)
Outline: as §1

MAPKAPK3 = molecular target: T4, MAPKAPK3 (Homo sapiens, UniProt Q16644); conditions: ATP Km, read-out: Percentage of inhibition
T4 construct: purchased Life Technologies
Outline: as §1

PRKG1 = molecular target: T5, PRKG1 (Homo sapiens, UniProt Q13976); conditions: ATP Km, read-out: Percentage of inhibition
T5 construct: purchased Life Technologies (SelectScreen Whole Panel service)
Outline: as §1

EGFR (ErbB1) T790M L858R = EGFR (ErbB1) T790M L858R (Homo sapiens, UniProt P00533, L858R/T790M); conditions: ATP Km, read-out: Percentage of inhibition
Outline: as §1

LYN A = molecular target: T6, LYN A (Homo sapiens, UniProt P07948); conditions: ATP Km, read-out: Percentage of inhibition
T6 construct: purchased Life Technologies (SelectScreen Whole Panel)
Outline: as §1

AMPK A1/B1/G1 = molecular target: T7, AMPK A1/B1/G1 (Homo sapiens, UniProt Q13131); conditions: ATP Km, read-out: Percentage of inhibition
T7 construct: purchased Life Technologies (SelectScreen Whole Panel service)
Outline: as §1

STK4 (MST1) = molecular target: T8, STK4 (MST1) (Homo sapiens, UniProt Q13043); conditions: ATP Km, read-out: Percentage of inhibition
T8 construct: purchased Life Technologies (SelectScreen Whole Panel)
T8 sequence (Q13043 whole entry): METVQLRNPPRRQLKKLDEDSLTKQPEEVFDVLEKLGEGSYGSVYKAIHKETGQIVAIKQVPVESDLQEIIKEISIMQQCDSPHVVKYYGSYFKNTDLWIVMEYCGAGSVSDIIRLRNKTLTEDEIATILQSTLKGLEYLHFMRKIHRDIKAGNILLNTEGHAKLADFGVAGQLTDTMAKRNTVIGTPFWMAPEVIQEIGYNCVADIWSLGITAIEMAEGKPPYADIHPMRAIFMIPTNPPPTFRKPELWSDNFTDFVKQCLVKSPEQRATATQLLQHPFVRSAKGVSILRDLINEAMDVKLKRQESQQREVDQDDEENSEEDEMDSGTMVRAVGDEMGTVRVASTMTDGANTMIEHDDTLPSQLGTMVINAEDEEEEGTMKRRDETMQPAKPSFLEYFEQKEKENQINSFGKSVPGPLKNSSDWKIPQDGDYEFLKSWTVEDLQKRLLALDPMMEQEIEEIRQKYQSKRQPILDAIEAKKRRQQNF
Outline: as §1

CLK2 = molecular target: T9, CLK2 (Homo sapiens, UniProt P49760); conditions: ATP Km, read-out: Percentage of inhibition
T9 construct: purchased Life Technologies
T9 sequence (P49760 whole entry): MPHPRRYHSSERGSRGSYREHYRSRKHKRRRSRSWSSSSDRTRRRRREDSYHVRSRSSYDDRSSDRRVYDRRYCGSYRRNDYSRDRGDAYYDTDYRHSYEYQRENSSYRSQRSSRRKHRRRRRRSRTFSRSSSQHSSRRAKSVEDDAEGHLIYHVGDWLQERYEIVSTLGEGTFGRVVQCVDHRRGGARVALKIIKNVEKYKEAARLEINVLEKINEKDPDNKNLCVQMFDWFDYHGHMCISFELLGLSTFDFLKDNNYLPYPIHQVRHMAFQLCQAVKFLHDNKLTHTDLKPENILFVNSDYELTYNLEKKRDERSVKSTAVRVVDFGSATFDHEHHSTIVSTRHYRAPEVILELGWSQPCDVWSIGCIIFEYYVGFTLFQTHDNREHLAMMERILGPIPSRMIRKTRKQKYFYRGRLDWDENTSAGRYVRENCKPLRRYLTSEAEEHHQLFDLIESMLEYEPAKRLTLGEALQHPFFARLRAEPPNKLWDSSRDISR
Outline: as §1

NTRK1 (TRKA) = NTRK1 (TRKA) (Homo sapiens, UniProt P04629); conditions: ATP Km, read-out: Percentage of inhibition
Sequence of NTRK1 (TRKA) (P04629 33-796): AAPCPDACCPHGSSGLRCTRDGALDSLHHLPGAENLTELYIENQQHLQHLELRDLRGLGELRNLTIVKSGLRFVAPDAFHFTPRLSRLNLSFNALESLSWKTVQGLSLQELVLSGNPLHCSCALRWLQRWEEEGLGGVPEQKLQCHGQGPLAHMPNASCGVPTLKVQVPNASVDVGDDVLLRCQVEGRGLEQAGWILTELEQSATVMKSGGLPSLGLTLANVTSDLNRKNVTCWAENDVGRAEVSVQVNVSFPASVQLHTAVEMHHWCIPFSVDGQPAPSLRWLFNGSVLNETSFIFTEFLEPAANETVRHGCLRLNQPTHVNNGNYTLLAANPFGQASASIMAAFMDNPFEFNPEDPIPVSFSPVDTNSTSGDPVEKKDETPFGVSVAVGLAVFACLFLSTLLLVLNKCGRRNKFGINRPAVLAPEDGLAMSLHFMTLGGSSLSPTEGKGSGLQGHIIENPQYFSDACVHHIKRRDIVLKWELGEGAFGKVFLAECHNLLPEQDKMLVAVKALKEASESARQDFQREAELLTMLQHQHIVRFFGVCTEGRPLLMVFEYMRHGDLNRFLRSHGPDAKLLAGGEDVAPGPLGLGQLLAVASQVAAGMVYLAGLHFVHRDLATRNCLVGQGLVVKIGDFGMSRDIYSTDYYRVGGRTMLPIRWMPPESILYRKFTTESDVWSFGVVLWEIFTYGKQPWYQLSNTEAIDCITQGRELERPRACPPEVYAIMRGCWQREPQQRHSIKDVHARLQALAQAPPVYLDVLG
Outline: as §1

PRKX = PRKX (Homo sapiens, UniProt P51817); conditions: ATP Km, read-out: Percentage of inhibition
Outline: as §1

MAPK7 (ERK5) = molecular target: T10, MAPK7 (ERK5) (Homo sapiens, UniProt Q13164); conditions: ATP Km, read-out: Percentage of inhibition
T10 construct: purchased Life Technologies (SelectScreen)
T10 sequence (Q13164 whole entry): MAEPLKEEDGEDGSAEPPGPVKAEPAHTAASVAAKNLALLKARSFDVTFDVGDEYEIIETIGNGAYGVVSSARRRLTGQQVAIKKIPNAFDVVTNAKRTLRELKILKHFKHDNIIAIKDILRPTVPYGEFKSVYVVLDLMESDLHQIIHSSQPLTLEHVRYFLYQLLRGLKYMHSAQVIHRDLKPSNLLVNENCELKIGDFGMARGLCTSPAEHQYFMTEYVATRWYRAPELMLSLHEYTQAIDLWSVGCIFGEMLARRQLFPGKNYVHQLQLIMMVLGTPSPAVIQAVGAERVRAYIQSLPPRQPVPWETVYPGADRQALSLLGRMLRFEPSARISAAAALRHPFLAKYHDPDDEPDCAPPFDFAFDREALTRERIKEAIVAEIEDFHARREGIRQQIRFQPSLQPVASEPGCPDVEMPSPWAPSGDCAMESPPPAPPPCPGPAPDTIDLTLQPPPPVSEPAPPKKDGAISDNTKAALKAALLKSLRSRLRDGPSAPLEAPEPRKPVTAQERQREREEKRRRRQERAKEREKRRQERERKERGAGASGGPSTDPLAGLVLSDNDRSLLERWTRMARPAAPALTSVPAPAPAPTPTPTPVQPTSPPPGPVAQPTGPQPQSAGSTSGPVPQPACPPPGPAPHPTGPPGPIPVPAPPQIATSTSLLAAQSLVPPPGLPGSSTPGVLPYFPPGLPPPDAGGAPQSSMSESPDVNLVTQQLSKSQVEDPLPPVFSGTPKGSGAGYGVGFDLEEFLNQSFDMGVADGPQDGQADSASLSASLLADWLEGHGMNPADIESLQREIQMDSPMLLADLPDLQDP
Outline: as §1

CSNK1G2 (CK1 gamma 2) = molecular target: T11, CSNK1G2 (CK1 gamma 2) (Homo sapiens, UniProt P78368); conditions: ATP Km, read-out: Percentage of inhibition
T11 construct: purchased Life Technologies
Outline: as §1

AURKC (Aurora C) = molecular target: T12, AURKC (Aurora C) (Homo sapiens, UniProt Q9UQB9); conditions: ATP Km, read-out: Percentage of inhibition
T12 construct: purchased Life Technologies (SelectScreen Whole Panel service)
T12 sequence (Q9UQB9 whole entry): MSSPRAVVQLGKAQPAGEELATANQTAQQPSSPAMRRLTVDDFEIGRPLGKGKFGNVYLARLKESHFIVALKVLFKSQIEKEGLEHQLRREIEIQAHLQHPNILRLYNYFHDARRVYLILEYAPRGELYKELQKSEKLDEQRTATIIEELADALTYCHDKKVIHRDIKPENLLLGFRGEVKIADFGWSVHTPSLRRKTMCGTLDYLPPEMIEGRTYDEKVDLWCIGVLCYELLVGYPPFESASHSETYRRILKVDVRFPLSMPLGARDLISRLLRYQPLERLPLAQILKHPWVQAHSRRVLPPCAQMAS
Outline: as §1

KIT V560G = molecular target: T13, KIT V560G (Homo sapiens, UniProt P10721, V560G); conditions: ATP Km, read-out: Percentage of inhibition
T13 construct: purchased Life Technologies
Outline: as §1

SGK2 = SGK2 (Homo sapiens, UniProt Q9HBY8); conditions: ATP Km, read-out: Percentage of inhibition
Outline: as §1

MKNK1 (MNK1) = MKNK1 (MNK1) (Homo sapiens, UniProt Q9BUB5); conditions: ATP Km, read-out: Percentage of inhibition
Outline: as §1

AMPK (A2/B1/G2) = AMPK (A2/B1/G2) (Homo sapiens, UniProt P54646); conditions: ATP Km, read-out: Percentage of inhibition
Outline: as §1

NTRK3 (TRKC) = molecular target: T14, NTRK3 (TRKC) (Homo sapiens, UniProt Q16288); conditions: ATP Km, read-out: Percentage of inhibition
T14 construct: purchased Life Technologies
Outline: as §1

MAP2K2 (MEK2) = molecular target: T15, MAP2K2 (MEK2) (Homo sapiens, UniProt P36507); conditions: ATP 100 µM, read-out: Percentage of inhibition
T15 construct: purchased Life Technologies
T15 sequence (P36507 whole entry): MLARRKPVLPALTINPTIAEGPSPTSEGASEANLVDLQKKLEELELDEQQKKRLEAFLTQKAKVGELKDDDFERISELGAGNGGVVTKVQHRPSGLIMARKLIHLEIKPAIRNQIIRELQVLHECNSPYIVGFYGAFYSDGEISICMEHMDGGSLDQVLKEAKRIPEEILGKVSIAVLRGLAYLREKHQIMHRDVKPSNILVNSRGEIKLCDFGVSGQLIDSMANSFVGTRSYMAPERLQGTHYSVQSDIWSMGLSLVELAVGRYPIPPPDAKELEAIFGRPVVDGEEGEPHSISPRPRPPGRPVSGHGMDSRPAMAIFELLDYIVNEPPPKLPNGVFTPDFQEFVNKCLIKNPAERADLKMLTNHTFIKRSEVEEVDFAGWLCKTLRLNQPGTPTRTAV
Outline: as §1

MYLK2 (skMLCK) = MYLK2 (skMLCK) (Homo sapiens, UniProt Q9H1R3); conditions: ATP Km, read-out: Percentage of inhibition
Outline: as §1

MINK1 = MINK1 (Homo sapiens, UniProt Q8N4C8); conditions: ATP Km, read-out: Percentage of inhibition
Outline: as §1

PLK1 = molecular target: T16, PLK1 (Homo sapiens, UniProt P53350); conditions: ATP Km, read-out: Percentage of inhibition
T16 construct: purchased Life Technologies (SelectScreen Whole Panel service)
Outline: as §1

RPS6KA5 (MSK1) = molecular target: T17, RPS6KA5 (MSK1) (Homo sapiens, UniProt O75582); conditions: ATP Km, read-out: Percentage of inhibition
T17 construct: purchased Life Technologies
Outline: as §1

CSNK1A1 (CK1 alpha 1) = molecular target: T18, CSNK1A1 (CK1 alpha 1) (Homo sapiens, UniProt P48729); conditions: ATP Km, read-out: Percentage of inhibition
T18 construct: purchased Life Technologies (SelectScreen Whole Panel)
Outline: as §1

ERBB4 (HER4) = ERBB4 (HER4) (Homo sapiens, UniProt Q15303); conditions: ATP Km, read-out: Percentage of inhibition
Outline: as §1

[1] = molecular target: EGFR (ErbB1) T790M C797S L858R (Homo sapiens, UniProt P00533, C797S/L858R/T790M); conditions: ATP Km, read-out: Percentage of inhibition
Outline: as §1

FGFR3 K650E = molecular target: T19, FGFR3 K650E (Homo sapiens, UniProt P22607, K650E); conditions: ATP Km, read-out: Percentage of inhibition
T19 construct: purchased Life Technologies (SelectScreen Whole Panel service)
Outline: as §1

ABL1 T315I = molecular target: T20, ABL1 T315I (Homo sapiens, UniProt P00519, T315I); conditions: ATP Km, read-out: Percentage of inhibition
T20 construct: purchased Life Technologies (SelectScreen service)
Outline: as §1

SRMS (Srm) = molecular target: T21, SRMS (Srm) (Homo sapiens, UniProt Q9H3Y6); conditions: ATP Km, read-out: Percentage of inhibition
T21 construct: purchased Life Technologies (SelectScreen Whole Panel service)
Outline: as §1

TEK (TIE2) Y897S = molecular target: T22, TEK (TIE2) Y897S (Homo sapiens, UniProt Q02763, Y897S); conditions: ATP Km, read-out: Percentage of inhibition
T22 construct: purchased Life Technologies (SelectScreen Whole Panel)
Outline: as §1

CHEK2 (CHK2) = molecular target: T23, CHEK2 (CHK2) (Homo sapiens, UniProt O96017); conditions: ATP Km, read-out: Percentage of inhibition
T23 construct: purchased Life Technologies
T23 sequence (O96017 whole entry): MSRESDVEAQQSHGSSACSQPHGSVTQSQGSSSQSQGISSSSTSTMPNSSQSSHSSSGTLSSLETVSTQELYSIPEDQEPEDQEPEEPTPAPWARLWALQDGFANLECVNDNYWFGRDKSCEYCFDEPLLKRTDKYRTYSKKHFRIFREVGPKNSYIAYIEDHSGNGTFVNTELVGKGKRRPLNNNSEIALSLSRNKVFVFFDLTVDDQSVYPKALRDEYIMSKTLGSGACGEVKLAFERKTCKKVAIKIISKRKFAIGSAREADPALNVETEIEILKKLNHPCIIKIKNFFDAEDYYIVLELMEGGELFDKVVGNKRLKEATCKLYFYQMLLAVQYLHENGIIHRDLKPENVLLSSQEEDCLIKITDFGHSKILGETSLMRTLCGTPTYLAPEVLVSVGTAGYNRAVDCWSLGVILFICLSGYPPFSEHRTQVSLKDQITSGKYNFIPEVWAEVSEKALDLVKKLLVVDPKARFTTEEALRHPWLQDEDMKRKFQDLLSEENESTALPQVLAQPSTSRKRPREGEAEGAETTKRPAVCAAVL
Outline: as §1

STK3 (MST2) = molecular target: T24, STK3 (MST2) (Homo sapiens, UniProt Q13188); conditions: ATP Km, read-out: Percentage of inhibition
T24 construct: purchased Life Technologies (SelectScreen Whole Panel)
Outline: as §1

MAPK12 (p38 gamma) = MAPK12 (p38 gamma) (Homo sapiens, UniProt P53778); conditions: ATP Km, read-out: Percentage of inhibition
Sequence of MAPK12 (p38 gamma) (P53778 whole entry): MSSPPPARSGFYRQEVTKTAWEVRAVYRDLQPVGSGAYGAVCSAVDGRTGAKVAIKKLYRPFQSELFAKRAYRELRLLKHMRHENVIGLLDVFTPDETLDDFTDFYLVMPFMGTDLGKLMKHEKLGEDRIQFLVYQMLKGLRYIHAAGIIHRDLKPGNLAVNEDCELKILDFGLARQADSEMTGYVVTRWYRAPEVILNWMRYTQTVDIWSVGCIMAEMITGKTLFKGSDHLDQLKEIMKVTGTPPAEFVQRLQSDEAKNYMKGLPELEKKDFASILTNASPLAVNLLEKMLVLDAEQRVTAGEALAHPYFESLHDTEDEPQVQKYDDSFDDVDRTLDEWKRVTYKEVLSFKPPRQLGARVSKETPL
Outline: as §1

EGFR (ErbB1) = molecular target: T25, EGFR (ErbB1) (Homo sapiens, UniProt P00533); conditions: ATP Km, read-out: Percentage of inhibition
T25 construct: purchased Life Technologies
Outline: as §1

RPS6KA2 (RSK3) = molecular target: T26, RPS6KA2 (RSK3) (Homo sapiens, UniProt Q15349); conditions: ATP Km, read-out: Percentage of inhibition
T26 construct: purchased Life Technologies (SelectScreen service)
T26 sequence (Q15349 whole entry): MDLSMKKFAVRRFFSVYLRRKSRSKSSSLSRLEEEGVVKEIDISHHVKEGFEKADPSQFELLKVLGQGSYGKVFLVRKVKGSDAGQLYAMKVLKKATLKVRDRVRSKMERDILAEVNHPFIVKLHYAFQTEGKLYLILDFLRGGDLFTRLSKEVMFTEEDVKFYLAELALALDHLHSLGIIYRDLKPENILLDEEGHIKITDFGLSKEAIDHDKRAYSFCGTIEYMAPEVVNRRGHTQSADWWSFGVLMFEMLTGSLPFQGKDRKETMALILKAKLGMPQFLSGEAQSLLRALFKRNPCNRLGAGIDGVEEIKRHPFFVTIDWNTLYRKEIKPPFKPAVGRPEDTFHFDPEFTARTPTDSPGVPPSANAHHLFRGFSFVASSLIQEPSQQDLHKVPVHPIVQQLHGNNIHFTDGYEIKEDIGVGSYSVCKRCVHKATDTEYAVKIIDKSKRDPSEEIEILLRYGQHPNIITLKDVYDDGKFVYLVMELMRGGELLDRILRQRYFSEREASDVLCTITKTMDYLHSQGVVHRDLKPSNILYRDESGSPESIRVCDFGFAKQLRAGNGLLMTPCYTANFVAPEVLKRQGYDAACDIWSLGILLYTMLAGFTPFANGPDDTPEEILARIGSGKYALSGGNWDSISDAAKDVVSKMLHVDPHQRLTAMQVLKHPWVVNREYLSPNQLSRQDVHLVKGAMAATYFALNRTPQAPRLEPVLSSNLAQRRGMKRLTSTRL
Outline: as §1

SMILES: COc1ccc2[nH]c3c(=O)[nH]c4ccc(O)cc4c3c2c1 [Compound 55, 2-Hydroxy-10-methoxy-5,7-dihydro-6H-indolo[2,3-c]quinolin-6-one]
- inhibition at 1 µM (MAPK3 (ERK1)): 27%
- inhibition at 1 µM (AURKB (Aurora B)): 41%
- inhibition at 1 µM (ABL1 F317L): 9%
- inhibition at 1 µM (MAPKAPK3): 3%
- inhibition at 1 µM (PRKG1): 11%
- inhibition at 1 µM (EGFR (ErbB1) T790M L858R): 20%
- inhibition at 1 µM (LYN A): 49%
- inhibition at 1 µM (AMPK A1/B1/G1): 47%
- inhibition at 1 µM (STK4 (MST1)): 99%
- inhibition at 1 µM (CLK2): 97%
- inhibition at 1 µM (NTRK1 (TRKA)): 69%
- inhibition at 1 µM (PRKX): 7%
- inhibition at 1 µM (MAPK7 (ERK5)): 8%
- inhibition at 1 µM (CSNK1G2 (CK1 gamma 2)): 33%
- inhibition at 1 µM (AURKC (Aurora C)): 17%
- inhibition at 1 µM (KIT V560G): 27%
- inhibition at 1 µM (SGK2): 19%
- inhibition at 1 µM (MKNK1 (MNK1)): 7%
- inhibition at 1 µM (AMPK (A2/B1/G2)): 63%
- inhibition at 1 µM (NTRK3 (TRKC)): 93%
- inhibition at 1 µM (MAP2K2 (MEK2)): 87%
- inhibition at 1 µM (MYLK2 (skMLCK)): 61%
- inhibition at 1 µM (MINK1): 66%
- inhibition at 1 µM (PLK1): 10%
- inhibition at 1 µM (RPS6KA5 (MSK1)): 28%
- inhibition at 1 µM (CSNK1A1 (CK1 alpha 1)): 51%
- inhibition at 1 µM (ERBB4 (HER4)): 20%
- inhibition at 1 µM [1]: 13%
- inhibition at 1 µM (FGFR3 K650E): 43%
- inhibition at 1 µM (ABL1 T315I): 24%
- inhibition at 1 µM (SRMS (Srm)): 16%
- inhibition at 1 µM (TEK (TIE2) Y897S): 1%
- inhibition at 1 µM (CHEK2 (CHK2)): 33%
- inhibition at 1 µM (STK3 (MST2)): 99%
- inhibition at 1 µM (MAPK12 (p38 gamma)): 19%
- inhibition at 1 µM (EGFR (ErbB1)): 4%
- inhibition at 1 µM (RPS6KA2 (RSK3)): 88%
